Source: PMC10048907, “Antennal Transcriptome Analysis of Olfactory Genes and Characterization of Odorant Binding Proteins in Odontothrips loti (Thysanoptera: Thripidae)” (International Journal of Molecular Sciences, 2023)
Read-outs that look alike come from different tables or passages of the source.

What was measured:
[1] = target: recombinant O.lotOBP6; experiment: Fluorescence competitive binding assay with 1-NPN probe; set-up: species or system Odontothrips loti; details: for IC50: 1× PBS pH 7.2~7.4, room temperature, triplicates, read-out: IC50 (concentration of ligand halving the initial fluorescence value of 1-NPN)
Description: Fluorescence was measured on a F-7000 fluorescence spectrophotometer (Hitachi, Tokyo, Japan) at room temperature with a 1 cm light path quartz cuvette and 10 nm slits for both excitation and emission. The fluorescent probe N-phenyl-1-naphthylamine (1-NPN) was excited at 337 nm, and emission was recorded between 370 and 520 nm. The pure protein was dissolved with 1× PBS (pH 7.2~7.4) at a final concentration of 2 μM. The ligands and 1-NPN were dissolved in methanol at the concentration of 1 mM.
To measure the affinity of 1-NPN to O.lotOBP6, a 2 μM solution of protein in 2 mL 1× PBS was titrated with 1-NPN to final concentrations of 0.25~8 μM. The affinity of ligands was measured by the titration of the O.lotOBP6/1-NPN complex at the concentration of 2 μM by adding ligand to final concentrations of 0.25~10 μM. The dissociation constants of the competitors were calculated by the equation Ki = IC50/(1 + [1-NPN]/K1-NPN), where IC50 is the concentration of ligands halving the initial fluorescence value of 1-NPN, [1-NPN] is the free concentration of 1-NPN, and K1-NPN is the dissociation constant of the complex O.lotOBP6/1-NPN. Experiments were performed in triplicates. GraphPad Prism 7.0 was used to perform nonlinear regression analysis on the standard curve and the dissociation curve.

[2] = tested on: Megalurothrips usitatus adults; set-up: method as in PMID 32246573; details: field trials, cited from earlier work
[3] = tested on: adult O. loti; experiment: Y-tube olfactometer choice tests with volatiles; assay type: in vivo, Odontothrips loti; details: volatile 10 ng/μL in paraffin oil vs paraffin oil control, chi-square test; for Response of male adult O. loti in Y-tube olfactometer: male adults
Description: In the behavioral assays, the female and male adults were reared together, while 3–5 days old female and male adults were collected separately by reproductive morphology. Eleven ligands with high binding affinities to O.lotOBP6/1-NPN complex based on fluorescence binding assays were used in the test. The responses of female and male O. loti to 11 volatiles (Table 3) were measured derived from M. sativa (Liu Y-Q, unpublished data) or semiochemicals previously used in Y-tube olfactometer bioassays. The glass Y-tube consisted of a stem and two arms (10 cm long, 1 cm in diameter) separated from each other at an angle of 75°. Air drawn into the olfactometer was first purified by active charcoal, moistened by distilled water in a gas-washing bottle, and split into two streams, with a flow rate of 50 mL min^−1. Two glass flasks (100 mL) provided test and control odor sources. Connections between the components of the olfactometer apparatus were made with Teflon tubes. Olfactometer experiments were carried out in a dark room at 26 ± 1 °C. Light was provided by a LED light (28 W), which was placed at the Y end of the olfactometer. The volatile sample of 10 ng/μL was dissolved in paraffin oil as the test odor source, with the control sample being paraffin oil. A single O. loti was introduced to the base tube of the Y-tube and observed for 5 min. When the test thrip entered a half-length of either arm of the Y-tube and stayed for 1 min, the choice was recorded. […] After five test thrips were tested, the odor sources were swapped to avoid directional effects in the apparatus. To avoid the effects of travelling residual odors of test thrips, ten test thrips tests were followed by a new Y-tube, which was cleaned with 75% ethanol and oven dried at 60 °C for 30 min. Sixty biological replicates were carried out for each female or male treatment. Results were analyzed by Chi-square test using IBM SPSS 22.

[4] = O.lotOBP6/1-NPN complex 2 μM, calculated from IC50, read-out: Ki (dissociation constant, Ki = IC50/(1 + [1-NPN]/K1-NPN))
[5] = competitive fluorescence binding curves, read-out: Ki (high binding affinities with the O.lotOBP6/1-NPN complex)

Compound | IC50 ([1]; O.lotOBP6/1-NPN complex 2 μM) [nM] | Ki [1, 4] [nM] | Ki [1, 5] [nM] | other results
c1ccc(Nc2cccc3ccccc23)cc1 [1-NPN, N-phenyl-1-naphthylamine, reference compound] |  |  |  | Kd ([1]; 2 μM protein titrated with 1-NPN 0.25~8 μM, Scatchard equation, read-out: Dissociation constant of recombinant O.lotOBP6 protein to 1-NPN): 1050 nM
CCCCC(CC)CO (centres unmarked) [2-Ethyl-1-hexanol] | 3800 ± 310 | 1570 ± 130 | < 10000 | 
C=CCCC=O [4-Pentenal] | > 50000 |  |  | 
CC(=O)OC/C=C(\C)CC/C=C(\C)CCC=C(C)C [(2E,6E)-farnesyl acetate] |  |  |  | Duration of attraction effect ([2]; dose of 60 μg): at least 6 days; Attractiveness to adults compared to the control [2]: significantly more attractive
CC/C=C\CCOC(=O)CCC [(Z)-3-Hexenyl butyrate] | 5580 ± 380 | 2300 ± 160 | < 10000 | Response of male adult O. loti in Y-tube olfactometer [3]: significantly attracted
O=Cc1ccccc1 [Benzaldehyde] | 1620 ± 120 | 670 ± 50 | < 10000 | 
Cc1cc(C(C)(C)C)c(O)c(C(C)(C)C)c1 [Butylated hydroxytoluene] | > 50000 |  |  | 
C=C(C)[C@H]1CC=C(C)CC1 [D-Limonene] | > 50000 |  |  | 
CCOC(=O)c1cccnc1 [Ethyl nicotinate] | > 50000 |  |  | 
CC12CCC(CC1)C(C)(C)O2 [Eucalyptol] | 2060 ± 50 | 850 ± 20 | < 10000 | 
C=CC(C)(O)CCC=C(C)C (centres unmarked) [Linalool] | 6920 ± 240 | 2860 ± 100 | < 10000 | 
CCCCCCCCC=O [Nonanal] | 1400 ± 90 | 580 ± 40 | < 10000 | 
O=Cc1ccccc1O [Salicylaldehyde] | 1100 ± 10 | 450 | < 10000 | 
CCCCCCCCCCCCC [Tridecane] | 2600 ± 440 | 1070 ± 180 | < 10000 | 
Cc1cccc(C)c1 [m-Xylene] | 8410 ± 310 | 3470 ± 130 | < 10000 | 
COc1ccc(C=O)cc1 [p-Anisaldehyde] | 4590 ± 640 | 1890 ± 260 | < 10000 | 
C=C(C)C1CCC(C)C(=O)C1 (centres unmarked) [p-Menth-8-en-2-one] | 340 ± 30 | 140 ± 10 | < 10000 | Response of female adult O. loti in Y-tube olfactometer ([3]; female adults): significantly attracted; Response of male adult O. loti in Y-tube olfactometer [3]: significantly attracted
CC1=CCC2CC1C2(C)C (stereo not drawn) [α-Pinene] | > 50000 |  |  | 
